Experimental data as given in ChEMBL document CHEMBL4680302, “Biologic-like In Vivo Efficacy with Small Molecule Inhibitors of TNFα Identified Using Scaffold Hopping and Structure-Based Drug Design Approaches” (J Med Chem, 2020).

What was measured:
Tumor necrosis factor [1] = target: T1, Tumor necrosis factor (Homo sapiens, UniProt P01375); test: Displacement of fluorescent labeled probe from human recombinant His-tagged TNFalpha (77 to 233 residues) expressed in Escherichia coli preincubated for 1 hr followed by fluorogenic probe addition and measured after 3 hrs by HTRF assay
Tumor necrosis factor [2] = target: T1, Tumor necrosis factor; test: Inhibition of exogenous human TNFalpha in HEK-Blue-CD40L cells assessed as reduction in TNF-alpha-induced NFkappaB activation incubated for 18 hrs by quanti-blue based SEAP assay; assay type: cell-based
[3] = Metabolic stability in human liver microsomes assessed as parent compound remaining after 10 mins; assay type: ADME, Microsome; details: read-out: Stabilty
[4] = Metabolic stability in mouse liver microsomes assessed as parent compound remaining after 10 mins; assay type: ADME, Microsome; details: read-out: Stabilty
Cytochrome P450 2C9 = Cytochrome P450 2C9 (Homo sapiens, UniProt P11712); test: Inhibition of recombinant CYP2C9 (unknown origin); assay type: ADME
Cytochrome P450 2C19 = Cytochrome P450 2C19 (Homo sapiens, UniProt P33261); test: Inhibition of recombinant CYP2C19 (unknown origin); assay type: ADME
Sequence of Cytochrome P450 2C19 (P33261 whole entry): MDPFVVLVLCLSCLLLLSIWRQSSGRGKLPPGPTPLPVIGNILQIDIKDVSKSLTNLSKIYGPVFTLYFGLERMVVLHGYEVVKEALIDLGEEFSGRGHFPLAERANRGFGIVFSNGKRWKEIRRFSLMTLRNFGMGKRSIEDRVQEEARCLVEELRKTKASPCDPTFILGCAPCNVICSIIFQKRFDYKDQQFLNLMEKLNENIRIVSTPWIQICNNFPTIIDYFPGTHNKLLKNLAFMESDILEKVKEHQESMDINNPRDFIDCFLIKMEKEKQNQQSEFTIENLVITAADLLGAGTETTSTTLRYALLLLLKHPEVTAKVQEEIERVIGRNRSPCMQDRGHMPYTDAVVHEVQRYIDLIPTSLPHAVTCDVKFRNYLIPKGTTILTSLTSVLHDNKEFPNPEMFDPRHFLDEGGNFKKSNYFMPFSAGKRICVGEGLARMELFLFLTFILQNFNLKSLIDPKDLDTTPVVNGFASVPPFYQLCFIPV

T1 sequence (P01375 whole entry, the tested form may be a part): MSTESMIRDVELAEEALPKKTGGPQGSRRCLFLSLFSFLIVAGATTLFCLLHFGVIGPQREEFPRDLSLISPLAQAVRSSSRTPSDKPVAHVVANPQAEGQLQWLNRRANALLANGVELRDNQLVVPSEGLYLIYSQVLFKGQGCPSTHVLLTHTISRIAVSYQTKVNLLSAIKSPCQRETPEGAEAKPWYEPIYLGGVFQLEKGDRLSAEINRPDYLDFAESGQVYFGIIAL
Sequence of Cytochrome P450 2C9 (P11712 whole entry): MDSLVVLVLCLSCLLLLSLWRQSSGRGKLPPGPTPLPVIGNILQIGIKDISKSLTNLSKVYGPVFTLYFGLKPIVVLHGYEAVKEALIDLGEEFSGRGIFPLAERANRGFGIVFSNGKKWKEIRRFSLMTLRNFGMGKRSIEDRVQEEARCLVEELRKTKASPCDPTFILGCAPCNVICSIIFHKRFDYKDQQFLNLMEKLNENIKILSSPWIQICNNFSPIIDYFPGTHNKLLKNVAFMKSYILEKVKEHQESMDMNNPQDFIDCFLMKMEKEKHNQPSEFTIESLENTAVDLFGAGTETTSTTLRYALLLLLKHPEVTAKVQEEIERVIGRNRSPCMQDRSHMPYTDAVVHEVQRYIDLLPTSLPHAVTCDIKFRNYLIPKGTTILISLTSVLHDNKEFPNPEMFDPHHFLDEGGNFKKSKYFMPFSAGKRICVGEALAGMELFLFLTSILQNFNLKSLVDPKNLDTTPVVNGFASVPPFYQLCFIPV

SMILES	remaining at 10 min [3] [%]	remaining at 10 min [4] [%]	IC50 (Cytochrome P450 2C9) [µM]	IC50 (Cytochrome P450 2C19) [µM]	IC50 (Tumor necrosis factor [1]) [µM]	IC50 (Tumor necrosis factor [2]) [µM]
C[C@H](Nc1c(Cl)cnc2ccc(-c3cnc(C(C)(C)O)nc3)cc12)c1ccccc1	32	26			0.943	> 25
C[C@@H](Nc1c(Cl)cnc2ccc(-c3cnc(C(C)(C)O)nc3)cc12)c1cc(N2CCCC2)ccc1F	30	18			0.094	0.331
CC(Nc1c(Cl)cnc2ncc(-c3cnc(C(C)(C)O)nc3)cc12)c1ccccc1F (racemic)					0.207	
CC(Nc1c(Cl)cnc2cc(F)c(-c3cnc(C(C)(C)O)nc3)cc12)c1ccccc1F (racemic)	70	28			0.048	0.064
CC(Nc1c(Cl)cnc2ccc(-c3cnc(C(C)(C)O)nc3)cc12)c1cccc(F)c1 (racemic)	47	32			0.031	1.04
CC(Nc1c(Cl)cnc2cnc(-c3cnc(C(C)(C)O)nc3)cc12)c1ccccc1F (racemic)					0.4	
C[C@@H](Nc1c(Cl)cnc2ccc(-c3cnc(C(C)(C)O)nc3)cc12)c1ccccc1F	59	54			0.017	0.11
CC(Nc1c(Cl)cnc2ccc(-c3cnc(C(C)(C)O)nc3)nc12)c1ccccc1F (racemic)					0.024	
C[C@@H](Nc1c(Cl)cnc2ccc(-c3cnc(C(C)(C)O)nc3)cc12)c1cc(C#N)ccc1F	79	23			0.048	0.049
Cc1ccc(C)c(Nc2c(Cl)cnc3ccc(Br)cc23)c1					0.036	0.84
CC(Nc1c(Cl)cnc2ccc(-c3cnc(C(C)(C)O)nc3)cc12)c1ccc(F)cc1 (racemic)	42	38			0.062	0.84
CC(Nc1c(Cl)cnc2ccc(-c3cnc(C(C)(C)O)nc3)c(Cl)c12)c1ccccc1F (racemic)					0.116	0.365
C[C@@H](Nc1ccnc2ccc(-c3cnc(C(C)(C)O)nc3)cc12)c1cc(N2CCCC2)ccc1F	46	51			15.1	> 25
CC(Nc1c(Cl)cnc2ccc(-c3cnc(C(C)(C)O)nc3)nc12)c1ccccc1F (single isomer, unassigned; enantiomer 1)					0.039	0.753
CC(Nc1c(Cl)cnc2cc(Cl)c(-c3cnc(C(C)(C)O)nc3)cc12)c1ccccc1F (racemic)					0.054	0.178
Cc1ccc(C)c(Nc2ccnc3ccc(-c4ccc(C#N)nc4)cc23)c1					0.428	> 25
CC(C)(O)c1ncc(-c2ccc3ncc(Cl)c(NC(C)(C)c4ccccc4)c3c2)cn1	76	47			> 10	> 25
Cc1ccc(C)c(Nc2c(C)cnc3ccc(-c4cnc(C(C)(C)O)nc4)cc23)c1						0.107
C[C@@H](Nc1c(Cl)cnc2ccc(-c3ccc(C(C)(C)O)cc3)cc12)c1ccccc1F	73	24			0.047	0.065

Further lines, with some results ahead:

remaining at 10 min [3] [%]	remaining at 10 min [4] [%]	IC50 (Cytochrome P450 2C9) [µM]	IC50 (Cytochrome P450 2C19) [µM]	SMILES	IC50 (Tumor necrosis factor [1]) [µM]	IC50 (Tumor necrosis factor [2]) [µM]
33	31			C[C@@H](Nc1c(Cl)cnc2ccc(-c3ccc(S(C)(=O)=O)nc3)cc12)c1ccccc1F	0.015	0.909
50	21			CC(Nc1c(Cl)cnc2ccc(-c3cnc(C(C)(C)O)nc3)cc12)c1ccccn1 (racemic)	0.264	> 25
33	30			Cc1ccc(C)c(Nc2c(Cl)cnc3ccc(-c4ccc(C#N)nc4)cc23)c1	0.035	0.073
		2.8	2.1	Cc1ccc(C)c(Nc2c(Cl)c(C)nc3ccc(-c4cnc(C(C)(C)O)nc4)cc23)c1	0.051	0.196
81	49			CC(Nc1c(Cl)cnc2ccc(-c3cnc(C(C)(C)O)nc3)cc12)c1ccccc1C(F)(F)F (racemic)	0.051	0.407
57	34			C[C@@H](Nc1c(Cl)cnc2ccc(-c3cnc(N4CCS(=O)(=O)CC4)nc3)cc12)c1ccccc1F	0.025	0.152
35	24	0.6	0.03	Cc1ccc(C)c(Nc2c(Cl)cnc3ccc(-c4cnc(C(C)(C)O)nc4)cc23)c1		0.105
67	25			CC(Nc1c(Cl)cnc2c(F)cc(-c3cnc(C(C)(C)O)nc3)cc12)c1ccccc1F (racemic)	0.046	0.224
70	45			C[C@@H](Nc1c(Cl)cnc2ccc(-c3cnc(C(C)(C)O)nc3)cc12)c1cc(N)ccc1F	0.037	0.041
86	57			C[C@@H](Nc1c(Cl)cnc2ccc(-c3cnc(N4CCN(CC(=O)O)CC4)nc3)cc12)c1ccccc1F		0.115
69	13			CC(C)C(Nc1c(Cl)cnc2ccc(-c3cnc(C(C)(C)O)nc3)cc12)c1ccccc1F (racemic)	0.057	0.826
57	38			CCC(Nc1c(Cl)cnc2ccc(-c3cnc(C(C)(C)O)nc3)cc12)c1ccccc1F (racemic)	0.035	0.368
32	28			CCOc1ncc(-c2ccc3ncc(Cl)c(N[C@H](C)c4ccccc4F)c3c2)cn1	0.015	0.587
40	7			CC(Nc1c(Cl)cnc2c(Cl)cc(-c3cnc(C(C)(C)O)nc3)cc12)c1ccccc1F (racemic)	0.106	> 25
45	50			C[C@@H](Nc1c(Cl)cnc2ccc(-c3cnc(C(C)(C)O)nc3)cc12)c1ccccc1	0.014	0.496
57	61			CC(C)(O)c1ncc(-c2ccc3ncc(Cl)c(NCc4ccccc4)c3c2)cn1	0.082	> 25
84	41		0.03	CC(Nc1c(Cl)cnc2ccc(-c3cnc(C(C)(C)O)nc3)nc12)c1ccccc1F (single isomer, unassigned; enantiomer 2)	0.038	0.473
51	34			CC(Nc1c(Cl)cnc2ccc(-c3cnc(C(C)(C)O)nc3)cc12)c1ccccc1F (racemic)	0.027	0.19
